# In patent US4394382A, “Dihydrobenzopyran compounds and pharmaceutical composition comprising said compounds” (Kowa Company, Ltd., priority 1980, dated 1983):
# Counter-ions that a name gives are not always drawn.
# Key:
# [1] = urine and electrolyte excretion, oral water load method; type: in vivo; details: rat, over 5 hours; for Amount of urine: average ± standard deviation
# Protocol: Using rats, five per group, the amount of urine and the amount of electrolytes (sodium, potassium) excreted were measured over 5 hours after oral administration of each of the drugs by an oral water load method. Each of the test drugs was suspended in a 0.5% carboxymethyl cellulose solution and orally administered. Each of the numerical values given in the table is an average value ± standard deviation.
# [2] = tested on: Femoral blood flow (femoral artery); test: femoral blood flow in anesthetized dogs; type: in vivo, dog; details: 1 to 300 μg/kg, *: an increase of about 10% as low doses, and a decrease of about 20% at high doses
# Protocol: Adult dogs were anesthetized with 30 mg/kg of pentobarbital administered intravenously and ventilated artificially. The effect of the compounds Ia and Ib on hemodynamic parameters was investigated. Drugs were used dissolved in 0.1 N hydrochloric acid and administered over the 1 to 300 μg/kg dose range.
# Measured with an electromagnetic flowmeter probe placed on the femoral artery.
# [3] = biological target: T1, isoproterenol, atrium dextrum and atrium sinistrum (Cavia porcellus, UniProt H0W3H1); test: isolated atrium cordis samples, antagonistic action on isoproterenol (Magnus method); details: guinea pig atrium, vs isoproterenol; reciprocal logarithm of molar concentration
# T1 construct: Using the atrium dextrum and atrium sinistrum of a guinea pig; from tissue; host or cells: guinea pig right and left atria
# Protocol: (§1) Each of the test drugs was used in a concentration of 10^-9 to 4×10^-4 mole/1000 ml (M).
# (1) Isolated atrium cordis samples
# Using the atrium dextrum and atrium sinistrum of a guinea pig, the contractile force and rhythem were recorded, and the antagonistic action of the test drugs on isoproterenol was examined.
# [4] = biological target: T2, isoproterenol, bronchus (Cavia porcellus, UniProt Q8K4Z4); test: isolated bronchus sample, antagonistic action on isoproterenol (Magnus method); details: guinea pig bronchus, vs isoproterenol, reciprocal logarithm of molar concentration
# T2 construct: Using the bronchus of a guinea pig; from tissue; host or cells: guinea pig bronchus
# Protocol: as §1
# (2) Isolated bronchus sample
# Using the bronchus of a guinea pig, the antagonistic action of the test drugs on isoproterenol was examined.
# [5] = tested on: potassium contracture, left circumflex branch (coronary artery); test: isolated coronary artery, action on potassium contracture (Magnus method); details: dog coronary artery, 50% inhibition of maximum reaction, reciprocal logarithm of molar concentration
# Protocol: Each of the test drugs was used in a concentration of 10^-9 to 4×10^-4 mole/1000 ml (M). (3) Isolated coronary artery Using the left circumflex branch of a dog, the action of the test drugs on potassium contracture was examined.
# [6] = tested on: potassium contracture, portal vein; test: isolated portal vein, action on potassium contracture (Magnus method); details: dog portal vein, 50% inhibition of maximum reaction, reciprocal logarithm of molar concentration
# Protocol: (§2) The activities of the compounds Ia and Ib on various isolated smooth muscles were examined by the Magnus method. Each of the test drugs was used in a concentration of 10^-9 to 4×10^-4 mole/1000 ml (M).
# Using an isolated portal vein of a dog, the action of the test drugs on potassium contracture was examined.
# [7] = tested on: potassium contracture, saphenous vein; test: isolated saphenous vein, action on potassium contracture (Magnus method); details: dog saphenous vein, 50% inhibition of maximum reaction, reciprocal logarithm of molar concentration
# Protocol: as §2
# (5) Isolated saphenous vein
# Using an isolated saphenous vein of a dog, the action of the test drugs on potassium contracture was examined.
# [8] = tested on: potassium contracture, mesenteric artery; test: isolated mesenteric artery, antagonistic action on potassium contracture (Magnus method); details: dog mesenteric artery, 50% inhibition of maximum reaction, reciprocal logarithm of molar concentration
# Protocol: as §2
# (§3) (6) Isolated mesenteric artery
# (§4) Using an isolated mesenteric artery of a dog, the antagonistic action of the test drugs on (a) potassium contracture and (b) norepinephirine was examined.
# [9] = tested on: norepinephirine, mesenteric artery; test: isolated mesenteric artery, antagonistic action on norepinephrine (Magnus method); details: dog mesenteric artery, vs norepinephrine; reciprocal logarithm of molar concentration
# Protocol: as §2, §3, §4
# [10] = tested on: various isolated smooth muscles; test: activities on various isolated smooth muscles, overall (Magnus method)
# Protocol: as §2
# [11] = 30 mg/kg, controls 22.5 ± 1.4 and (second set) 19.4 ± 4.0
# [12] = 30 mg/kg, controls 0.18 ± 0.04 and (second set) 0.21 ± 0.08
# [13] = 30 mg/kg, controls 0.53 ± 0.15 and (second set) 0.55 ± 0.14
# [14] = 30 mg/kg, controls 3.08 ± 0.27 and (second set) 2.76 ± 0.83
# T1 sequence (H0W3H1 1-470): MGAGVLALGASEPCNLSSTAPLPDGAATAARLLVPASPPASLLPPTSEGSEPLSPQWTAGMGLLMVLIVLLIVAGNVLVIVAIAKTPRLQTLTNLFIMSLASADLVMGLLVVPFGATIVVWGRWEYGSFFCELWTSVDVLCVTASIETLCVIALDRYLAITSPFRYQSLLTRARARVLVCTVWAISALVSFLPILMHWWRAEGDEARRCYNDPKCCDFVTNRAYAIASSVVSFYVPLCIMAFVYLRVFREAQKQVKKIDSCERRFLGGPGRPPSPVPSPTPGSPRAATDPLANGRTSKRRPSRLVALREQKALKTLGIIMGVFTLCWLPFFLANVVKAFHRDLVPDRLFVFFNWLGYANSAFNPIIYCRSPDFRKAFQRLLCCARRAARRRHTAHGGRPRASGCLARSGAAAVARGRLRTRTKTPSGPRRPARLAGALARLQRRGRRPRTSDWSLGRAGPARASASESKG
# T2 sequence (Q8K4Z4 whole entry): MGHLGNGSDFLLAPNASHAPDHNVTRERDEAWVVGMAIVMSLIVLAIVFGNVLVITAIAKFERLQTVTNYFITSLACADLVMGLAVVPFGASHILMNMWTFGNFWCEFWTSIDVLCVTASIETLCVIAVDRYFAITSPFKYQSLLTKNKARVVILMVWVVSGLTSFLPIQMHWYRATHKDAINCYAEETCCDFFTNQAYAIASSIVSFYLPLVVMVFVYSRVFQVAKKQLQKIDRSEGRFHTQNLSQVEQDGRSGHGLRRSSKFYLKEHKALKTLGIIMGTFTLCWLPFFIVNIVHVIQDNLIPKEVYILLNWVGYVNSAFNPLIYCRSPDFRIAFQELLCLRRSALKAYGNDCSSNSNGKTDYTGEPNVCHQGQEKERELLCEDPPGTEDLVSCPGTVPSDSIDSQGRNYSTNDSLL
(1) pA2 [3],Compound,"Amount of urine [1, 11] [mL/kg]","K/Na [1, 12]","K excreted [1, 13] [mEq/kg]","Na excreted [1, 14] [mEq/kg]",(8) Femoral blood flow* [2],(3) pD'2 [5],(4) pD'2 [6],(5) pD'2 [7],(6) (a) pD'2 [8],(6) (b) pA2 [9],also measured
9.1,"CC(C)NCC(O)COc1cccc2c1OCC(O[N+](=O)[O-])C2 (centres unmarked) [Compound Ia, 3,4-dihydro-8-[(2-hydroxy-3-isopropylamino)propoxy]-3-nitrato-2H-benzopyran]",31.1 ± 3.2,0.20 ± 0.05,0.91 ± 0.23,4.18 ± 0.56,+~-,6.2-6.3,6.3-6.4,5.8-6.0,5.2-5.3,7.0-7.1,"Amount of urine ([1]; 10 mg/kg, control 22.5 ± 1.4): 24.2 ± 2.2 mL/kg; K excreted ([1]; 10 mg/kg, control 0.53 ± 0.15): 0.61 ± 0.20 mEq/kg; Na excreted ([1]; 10 mg/kg, control 3.08 ± 0.27): 3.25 ± 0.18 mEq/kg; Amount of urine ([1]; 100 mg/kg, control 19.4 ± 4.0): 34.0 ± 3.7 mL/kg; K/Na ([1]; 100 mg/kg, control 0.21 ± 0.08): 0.30 ± 0.10; K excreted ([1]; 100 mg/kg, control 0.55 ± 0.14): 0.14 ± 0.45 mEq/kg; Na excreted ([1]; 100 mg/kg, control 2.76 ± 0.83): 3.69 ± 0.33 mEq/kg; K/Na ([1]; control 0.18 ± 0.04): 0.19 ± 0.07; (2) pA2 [4]: 9.1-9.2; β- and α-blocking activities [10]: strong β- and α-blocking activities"
–,"CC(C)NCC(O)COc1cccc2ccccc12 (centres unmarked) [Comparative drug I, propranolol hydrochloride, reference compound]",27.8 ± 3.7,0.21 ± 0.04,0.70 ± 0.11,3.42 ± 0.28,–,–,–,–,–,–,–
7.83,"CC(C)NCC(O)COc1cccc2c1OCC(CO[N+](=O)[O-])C2 (centres unmarked) [Compound Ib, 3,4-dihydro-8-[(2-hydroxy-3-isopropylamino)propoxy]-3-nitratomethyl-2H-benzopyran]",32.6 ± 4.5,0.21 ± 0.08,0.83 ± 0.36,3.87 ± 0.64,+~-,5.7,6.2,6.2,5.6,6.4,Kb ([4]; read-out: (2) pA2 (converted)): 5.13 nM
–,"NS(=O)(=O)c1cc2c(cc1Cl)NC(C(Cl)Cl)NS2(=O)=O (centres unmarked) [Comparative drug II, trichlormethiazide, reference compound]",34.8 ± 1.7,0.21 ± 0.04,1.12 ± 0.18,5.36 ± 0.42,–,–,–,–,–,–,–
